Data from US7384965B2, “Fused heterocyclic derivatives as PPAR modulators” (Eli Lilly and Company, priority 2003, dated 2008).

melting point | SMILES
178 to 180 °C | CCc1cc(SCc2cccc3c2nc(-c2ccc(C(F)(F)F)cc2)n3C)ccc1OCC(=O)O [Example 91, 2-Ethyl-4-[1-methyl-2-(4-trifluoromethylphenyl)-1H-benzoimidazol-4-ylmethylsulfanyl]phenoxyacetic Acid]
178 to 180 °C | Cn1c(-c2ccc(C(F)(F)F)cc2)nc2c(CSc3cccc(CC(=O)O)c3)cccc21 [Example 92, 3-[1-Methyl-2-(4-trifluoromethylphenyl)-1H-benzoimidazol-4-ylmethylsulfanyl]phenylacetic Acid]
85 to 88 °C | Cc1cc(SCc2cccc3[nH]c(-c4ccc(C(F)(F)F)cc4)cc23)ccc1OCC(=O)O [Example 93, 2-Methyl-4-[2-(4-trifluoromethylphenyl)-1H-indol-4-ylmethylsulfanyl]phenoxyacetic Acid]
174 to 176 °C | CCc1cc(SCc2cccc3[nH]c(-c4ccc(C(F)(F)F)cc4)cc23)ccc1OCC(=O)O [Example 94, 2-Ethyl-4-[2-(4-trifluoromethylphenyl)-1H-indol-4-ylmethylsulfanyl]phenoxyacetic Acid]
154 to 157 °C | Cc1cc(SCc2ccnc3oc(-c4ccc(C(F)(F)F)cc4)nc23)ccc1OCC(=O)O [Example 95, 2-Methyl-4-[2-(4-trifluoromethylphenyl)oxazolo[5,4-b]pyridine-7-ylmethylsulfanyl]phenoxyacetic Acid]
> 260 °C (dec.) | Cc1cc(SCc2ccnc3oc(-c4ccc(C(F)(F)F)cc4)nc23)ccc1CCC(=O)O [Example 96, 3-{2-Methyl-4-[2-(4-trifluoromethylphenyl)oxazolo[5,4-b]pyridin-7-ylmethylsulfanyl]phenyl}propionic Acid]
59 to 62 °C | CCc1cc(SCc2ccnc3oc(-c4ccc(C(F)(F)F)cc4)nc23)ccc1OCC(=O)O [Example 97, 2-Ethyl-4-[2-(4-trifluoromethylphenyl)oxazolo[5,4-b]pyridin-7-ylmethylsulfanyl]phenoxyacetic Acid]
203 to 205 °C | O=C(O)Cc1csc2cc(SCc3ccnc4oc(-c5ccc(C(F)(F)F)cc5)nc34)ccc12 [Example 98, 6-[2-(4-Trifluoromethylphenyl)oxazolo[5,4-b]pyridine-7-ylmethylsulfanyl]benzo[b]thiophen-3-ylacetic Acid]
164 to 166 °C | O=C(O)Cc1cccc(SCc2ccnc3oc(-c4ccc(C(F)(F)F)cc4)nc23)c1 [Example 99, 3-[2-(4-Trifluoromethylphenyl)oxazolo[5,4-b]pyridin-7-ylmethylsulfanyl]phenylacetic Acid]
82 to 85 °C | Cc1cc(SCc2ccnc3sc(-c4ccc(C(F)(F)F)cc4)nc23)ccc1OCC(=O)O [Example 100, 2-Methyl-4-[2-(4-trifluoromethylphenyl)thiazolo[5,4-b]pyridine-7-ylmethylsulfanyl]phenoxyacetic Acid]
65 to 70 °C | Cc1cc(SCc2ccnc3sc(-c4ccc(C(F)(F)F)cc4)nc23)ccc1CCC(=O)O [Example 101, 3-{2-Methyl-4-[2-(4-trifluoromethylphenyl)thiazolo[5,4-b]pyridin-7-ylmethylsulfanyl]phenyl}propionic Acid]
176 to 178 °C | CCc1cc(SCc2ccnc3sc(-c4ccc(C(F)(F)F)cc4)nc23)ccc1OCC(=O)O [Example 102, 2-Ethyl-4-[2-(4-trifluoromethylphenyl)thiazolo[5,4-b]pyridin-7-ylmethylsulfanyl]phenoxyacetic Acid]
239 to 241 °C | Cc1cc(SCc2ccnc3[nH]c(-c4ccc(C(F)(F)F)cc4)nc23)ccc1OCC(=O)O [Example 103, 2-Methyl-4-[2-(4-trifluoromethylphenyl)-3H-imidazo[4,5-b]pyridin-7-ylmethylsulfanyl]phenoxyacetic Acid]
180 to 182 °C | Cc1cc(SCc2ccnc3[nH]c(-c4ccc(C(F)(F)F)cc4)nc23)ccc1CCC(=O)O [Example 104, 3-{2-Methyl-4-[2-(4-trifluoromethylphenyl)-3H-imidazo[4,5-b]pyridin-7-ylmethylsulfanyl]phenyl}propionic Acid]
188 to 190 °C | CCc1cc(SCc2ccnc3[nH]c(-c4ccc(C(F)(F)F)cc4)nc23)ccc1OCC(=O)O [Example 105, 2-Ethyl-4-[2-(4-trifluoromethylphenyl)-3H-imidazo[4,5-b]pyridin-7-ylmethylsulfanyl]phenoxyacetic Acid]
213 to 215 °C | O=C(O)Cc1cccc(SCc2ccnc3[nH]c(-c4ccc(C(F)(F)F)cc4)nc23)c1 [Example 107]
89 to 91 °C | Cc1cc(SCc2ccnc3c2nc(-c2ccc(C(F)(F)F)cc2)n3C)ccc1CCC(=O)O [Example 108, 3-{2-Methyl-4-[3-methyl-2-(4-trifluoromethylphenyl)-3H-imidazo[4,5-b]pyridin-7-ylmethylsulfanyl]phenyl}propionic Acid]
118 to 120 °C | CCc1cc(SCc2ccnc3c2nc(-c2ccc(C(F)(F)F)cc2)n3C)ccc1OCC(=O)O [Example 109, 2-Ethyl-4-[3-methyl-2-(4-trifluoromethylphenyl)-3H-imidazo[4,5-b]pyridin-7-ylmethylsulfanyl]phenoxyacetic Acid]
